# Key:
# Format in all cases: cell-based, human
# [1] = tested on: MDA-MB-435 melanoma cells; experiment: Neutral red uptake (NRU) viability assay, MDA-MB-435; conditions: Homo sapiens, MDA-MB-435; NRU assay, 72 h, mean ± SD of three experiments
# Method: Melanoma human cancer cell line (A375 and MDA-MB-435) were obtained from ATCC. The NIH-3T3 cell line was generously gifted by the ANSM (French National Agency for Medicines and Health Products Safety, Vendargues, France). Cells were cultured in Dulbecco’s Modified Eagle Medium (DMEM, Sigma Aldrich) supplemented with 10% heat-inactivated foetal calf serum (FCS, Gibco), 2 mM glutamax (Gibco), 100 IU/mL penicillin G sodium (Sigma Aldrich), 100 lU/mL streptomycin sulphate (Sigma Aldrich). The cells were allowed to grow at 37 °C in a fully humidified atmosphere containing 5% CO2.
# A viability assay was used to evaluate the cytotoxic activity on A375 and MDA-MB-435 melanoma cells as previously described. According to OCDE/ICCVAM guidance n°129, NRU assay was also used to evaluate the toxicity on the non-cancerous NIH-3T3 cells. Cells were seeded at a final concentration of 2000 cells/well (A375), 3000 cells/well (NIH-3T3) or 7500 cells/well (MDA-MB-435) in 96-well microtiter plates for 24 h. Then, cells were exposed to two negative controls (1% DMSO in culture medium (vehicle) and culture medium alone), or to different compounds freshly dissolved in DMSO, in a range of concentration from 0.01 to 40 µM (six wells per concentration). After 72 h of incubation, cells were stained with new medium containing 50 µg/mL of neutral red (3-amino-7-dimethylamino-2-methylphenazine hydrochloride, Sigma Aldrich) at 37 °C for 2 h. The neutral red medium solution was then removed and the wells were washed with PBS. Finally, 100 µL of solution containing ethanol, acetic acid and water (50/1/49 v/v/v respectively) were added into the wells and the absorbance was measured at 540 nm using the microplate reader 352 Multiscan MS (Labsystems). Cell survival rates were normalised to the absorbance values of untreated control cells. IC50 was obtained using a logistic regression model on Graphpad Prism 5.0 software. Results are given as the mean ± standard deviation (SD) of three independent experiments. Statistical analysis was performed using the Student’s t-test.
# [2] = tested on: A549/ATCC; experiment: NCI-60 SRB assay, A549/ATCC (NSCLC); conditions: 10 µM, 48 h
# Method: (§1) Primary anticancer assay was performed on a panel of 60 human cancer cell lines derived from nine neoplastic diseases, in accordance with the protocol of the Drug Evaluation Branch, National Cancer Institute, Bethesda, Maryland, USA[22]. Cells were incubated with tested compounds at 10 µM for 48 h. The growth percentage was evaluated spectrophotometrically using a protein binding dye, SRB. Results for each tested compound were reported as the percent of growth of treated cells when compared to untreated control cells.
# (§2) To better compare the activity profile of these two series of compounds, compounds 5 and 8 were selected and then evaluated towards a panel of sixty cancer cell lines corresponding to nine different cancer types, i.e. leukaemia, melanoma, as well as lung, colon, central nervous system, ovarian, renal, prostate and breast cancers (NCI evaluation). Indeed, it is now well established that the growth inhibitory patterns of anticancer drugs against the NCI-60 cell line panel correlated well with their modes of action. For example, compounds that bind to tubulin have similar growth inhibition patterns regardless of which site on tubulin they bind[30]. […] Compounds were tested using the sulforhodamine B (SRB) assay that provides a direct cell density index. The amount of dye incorporated by the cells increases with the increase of the total protein biomass. Cells were incubated for 48 h with compounds at 10 µM concentration, then cell growth was evaluated spectrophotometrically and presented as the percent of untreated control cells. Values of the most sensitive cell lines were compared to those obtained with JMV5038 (Figure 4, for all data see SI).
# [3] = tested on: HOP-62; experiment: NCI-60 SRB assay, HOP-62 (NSCLC); conditions: 10 µM, 48 h;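 for Mean G% - G%: mean growth across the NCI-60 panel minus this line's growth with positive meaning more sensitive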
# Method: as §1, §2
# [4] = tested on: NCI-H226; experiment: NCI-60 SRB assay, NCI-H226 (NSCLC); conditions: 10 µM, 48 h
# Method: as §1, §2
# [5] = tested on: NCI-H322M; experiment: NCI-60 SRB assay, NCI-H322M (NSCLC); conditions: 10 µM, 48 h
# Method: as §1, §2
# [6] = tested on: COLO 205; experiment: NCI-60 SRB assay, COLO 205 (Colon Cancer); conditions: 10 µM, 48 h
# Method: as §1, §2
# [7] = tested on: HCC-2998; experiment: NCI-60 SRB assay, HCC-2998 (Colon Cancer); conditions: 10 µM, 48 h;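 for Mean G% - G%: mean growth across the NCI-60 panel minus this line's growth with positive meaning more sensitive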
# Method: as §1, §2
# [8] = tested on: SW-620; experiment: NCI-60 SRB assay, SW-620 (Colon Cancer); conditions: 10 µM, 48 h
# Method: as §1, §2
# [9] = tested on: SF-539; experiment: NCI-60 SRB assay, SF-539 (CNS Cancer); conditions: 10 µM, 48 h
# Method: as §1, §2
# [10] = tested on: U251; experiment: NCI-60 SRB assay, U251 (CNS Cancer); conditions: 10 µM, 48 h
# Method: as §1, §2
# [11] = tested on: LOX IMVI; experiment: NCI-60 SRB assay, LOX IMVI (Melanoma); conditions: 10 µM, 48 h
# Method: as §1, §2
# [12] = tested on: SK-MEL-2; experiment: NCI-60 SRB assay, SK-MEL-2 (Melanoma); conditions: 10 µM, 48 h
# Method: as §1, §2
# [13] = tested on: SK-MEL-5; experiment: NCI-60 SRB assay, SK-MEL-5 (Melanoma); conditions: 10 µM, 48 h
# Method: as §1, §2
# [14] = tested on: OVCAR-4; experiment: NCI-60 SRB assay, OVCAR-4 (Ovarian Cancer); conditions: 10 µM, 48 h;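 for Mean G% - G%: mean growth across the NCI-60 panel minus this line's growth with positive meaning more sensitive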
# Method: as §1, §2
# [15] = tested on: OVCAR-5; experiment: NCI-60 SRB assay, OVCAR-5 (Ovarian Cancer); conditions: 10 µM, 48 h;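 for Mean G% - G%: mean growth across the NCI-60 panel minus this line's growth with positive meaning more sensitive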
# Method: as §1, §2
# [16] = tested on: OVCAR-8; experiment: NCI-60 SRB assay, OVCAR-8 (Ovarian Cancer); conditions: 10 µM, 48 h
# Method: as §1, §2
# [17] = tested on: NCI/ADR-RES; experiment: NCI-60 SRB assay, NCI/ADR-RES (Ovarian Cancer); conditions: 10 µM, 48 h
# Method: as §1, §2
# [18] = tested on: SK-OV-3; experiment: NCI-60 SRB assay, SK-OV-3 (Ovarian Cancer); conditions: 10 µM, 48 h
# Method: as §1, §2
# [19] = tested on: A498; experiment: NCI-60 SRB assay, A498 (Renal Cancer); conditions: 10 µM, 48 h
# Method: as §1, §2
# [20] = tested on: SN12C; experiment: NCI-60 SRB assay, SN12C (Renal Cancer); conditions: 10 µM, 48 h
# Method: as §1, §2
# [21] = tested on: MCF7; experiment: NCI-60 SRB assay, MCF7 (Breast Cancer); conditions: 10 µM, 48 h
# Method: as §1, §2
# [22] = tested on: BT-549; experiment: NCI-60 SRB assay, BT-549 (Breast Cancer); conditions: 10 µM, 48 h
# Method: as §1, §2
compound,measurement,setting,value
"C[C@@H]1NC(c2ccc(N=[N+]=[N-])cc2)=Nc2nc3ccccn3c2C1=O [Compound 5, (4S)-4-methyl-2-(4-azidophenyl)-3,4-dihydro-5H-pyrido[1’,2’:1,2]imidazo[4,5-d][1,3]diazepin-5-one]",IC50,[1],4.75 ± 0.21 µM
same,Mean G% - G%,[2],"-3,81%"
same,G%,[2]; growth vs untreated control,"89,07%"
same,Mean G% - G%,[3],"6,31%"
same,G%,[3]; growth vs untreated control,"78,95%"
same,Mean G% - G%,[4],"-3,88%"
same,G%,[4]; growth vs untreated control,"89,14%"
same,Mean G% - G%,[5],"-10,63%"
same,G%,[5]; growth vs untreated control,"95,89%"
same,Mean G% - G%,[6],"5,95%"
same,G%,[6]; growth vs untreated control,"79,31%"
same,Mean G% - G%,[7],"3,82%"
same,G%,[7]; growth vs untreated control,"81,44%"
same,Mean G% - G%,[8],"13,36%"
same,G%,[8]; growth vs untreated control,"71,90%"
same,Mean G% - G%,[9],"-2,57%"
same,G%,[9]; growth vs untreated control,"87,83%"
same,Mean G% - G%,[10],"-13,85%"
same,G%,[10]; growth vs untreated control,"99,11%"
same,Mean G% - G%,[11],"4,81%"
same,G%,[11]; growth vs untreated control,"80,45%"
same,Mean G% - G%,[12],"-9,12%"
same,G%,[12]; growth vs untreated control,"94,38%"
same,Mean G% - G%,[13],"14,40%"
same,G%,[13]; growth vs untreated control,"70,86%"
same,Mean G% - G%,[14],"-3,32%"
same,G%,[14]; growth vs untreated control,"88,58%"
same,Mean G% - G%,[15],"-22,84%"
same,G%,[15]; growth vs untreated control,"108,10%"
same,Mean G% - G%,[16],"-16,08%"
same,G%,[16]; growth vs untreated control,"101,34%"
same,Mean G% - G%,[17],"11,92%"
same,G%,[17]; growth vs untreated control,"73,34%"
same,Mean G% - G%,[18],"-1,19%"
same,G%,[18]; growth vs untreated control,"86,45%"
same,Mean G% - G%,[19],"-14,16%"
same,G%,[19]; growth vs untreated control,"99,42%"
same,Mean G% - G%,[20],"-18,28%"
same,G%,[20]; growth vs untreated control,"103,54%"
same,Mean G% - G%,[21],"26,64%"
same,G%,[21]; growth vs untreated control,"58,62%"
same,Mean G% - G%,[22],"-10,11%"
same,G%,[22]; growth vs untreated control,"95,37%"
